Source: article PMC9977398, “Next-generation membrane-active glycopeptide antibiotics that also inhibit bacterial cell division” (Chemical Science, 2023)
Where two headings read alike, the source gives them in different places.

How the values were obtained:
E. coli = assay: MIC against E. coli; format: cell-based; details: Escherichia coli
VRE ATCC 51575 = assay: Activity in blood plasma and liver homogenate; format: cell-based, E. faecalis; details: for MIC: Enterococcus, VRE ATCC 51575
Procedure: Table S1: Activity of VanQAmC10 in mouse plasma and liver homogenate against MRSA […]
MIC of VanQAmC10 post incubation in (μM) […]
Activity in blood plasma and liver homogenate
To examine the susceptibility of VanQAmC10 to serum proteases, the antibacterial activities was tested in the presence of 50% of plasma and liver homogenate. Briefly, 250 μL of VanQAmC10 was added into 250 μL of fresh […] plasma and incubated at 37 °C. An aliquot of the samples 3 h and 24h post-incubation was diluted in 0.9% saline and the antibacterial activity (MIC) were determined against MRSA and VRE by following the same protocol as described above for the antibacterial assay. […]
50 μL of ∼10^6 CFU/mL bacterial inoculum (MRSA ATCC33591) was injected into the thigh. 1 h post-inoculation, animals were treated intraperitoneally twice with 12 h intervals with saline, vancomycin (12 mg kg−1), and VanQAmC10 (12 mg kg−1). 24 h post the first treatment, the animals were euthanized (using ether) and the thighs were collected aseptically. The thigh tissue was weighed and homogenized. The dilutions of the homogenate were plated onto agar plates, which were incubated overnight at about 37 °C. […]
In-vivo activity in murine burn wound infectionmodel 10-12

[1] = tested on: VRE 51575 (vancomycin-resistant E. faecalis, VanB phenotype, ATCC 51575); design: method as in PMID 32195571; details: previously reported; cited from earlier work
A. baumannii = tested on: A. baumannii; design: method as in PMID 32195571; details: cited from earlier work
human erythrocytes = assay: Haemolysis assay; format: cell-based; details: human, 1 h, pH 7.4
Procedure: To select the lead compounds, the toxicity of 1–10 was tested against human erythrocytes as their hemolytic activity (HC50). The HC50 is determined as the concentration at which 50% of the compound treated cells are lysed. […] The HC50 for compounds 6–8 was also greater than 500 μM. […] Based on the in vitro activity and hemolysis studies, VanQbiph (4) from the aryl-substituted compounds and VanQAmC10 (8) from the alkyl-chain substituted compounds were selected for further investigations. […] VanQAmC10 (8) was additionally non-toxic to RAW 264.7 cells up to 40 μM and was therefore taken forward in vivo investigation.[18]
50 μL of serially diluted compound was added into 96 well microtiter plates. Freshly drawn, heparanized human blood was centrifuged down to obtain the erythrocytes and re-suspended to 5 vol % in PBS (pH 7.4). 150 μL of the erythrocyte suspension was added to the serially diluted compounds (from 500 µM to 2 µM). One set without compound and other with 50 μL of 1 vol % solution of Triton X-100 were kept as controls. The plates were incubated at 37 °C for 1 h followed by centrifugation at 3,500 rpm for 5 min. 100 μL of the supernatant from each well were transferred into fresh microtiter plates, and A540 was measured.
% haemolysis = (A - A0)/(Atotal -A0) × 100, where A is the absorbance of the test well, A 0 the absorbance of the negative controls (without compound), and A total the absorbance of 100 % hemolysis wells (with Triton X -100), all at 540 nm. […]

SMILES | MIC (E. coli) | MIC (VRE ATCC 51575; 50% plasma, 37 °C, read-out: MIC post incubation in plasma) | MIC (VRE ATCC 51575; read-out: MIC post incubation in liver homogenate) | MIC (VRE ATCC 51575; read-out: MIC post incubation in media) | change of MIC in plasma and liver homogenate (VRE ATCC 51575; VRE) | Minimum inhibitory concentration, VRE 51575 [1] | resistance induction in A. baumannii (A. baumannii) | HC50 (human erythrocytes)
CCCCCCCCCCNC(=O)C[N+](C)(C)CCCNC(=O)C1NC(=O)C2NC(=O)C(NC(=O)C3NC(=O)C(CC(N)=O)NC(=O)C(NC(=O)C(CC(C)C)NC)C(O)c4ccc(c(Cl)c4)Oc4cc3cc(c4OC3OC(CO)C(O)C(O)C3OC3CC(C)(N)C(O)C(C)O3)Oc3ccc(cc3Cl)C2O)c2ccc(O)c(c2)-c2c(O)cc(O)cc21 (centres unmarked) [VanQAmC10 (8)] | 16 µM | 4 µM | 4 µM | 4 µM | remained unchanged | 4 µM | does not induce resistance | –
CNC(CC(C)C)C(=O)NC1C(=O)NC(CC(N)=O)C(=O)NC2C(=O)NC3C(=O)NC(C(=O)NC(C(=O)NCCC[N+](C)(C)Cc4ccc(-c5ccccc5)cc4)c4cc(O)cc(O)c4-c4cc3ccc4O)C(O)c3ccc(c(Cl)c3)Oc3cc2cc(c3OC2OC(CO)C(O)C(O)C2OC2CC(C)(N)C(O)C(C)O2)Oc2ccc(cc2Cl)C1O (centres unmarked) [VanQbiph (4)] | – | – | – | – | – | – | – | >500 µM
